Data on 8 compounds can be found in ChEMBL document CHEMBL1129049, “Structure-activity analysis of anandamide analogs: relationship to a cannabinoid pharmacophore” (1996).

Test [1] is filed under the species Mus musculus. The test can be described thus: Effective dose required to increase tail-flick latency in mice. Type of test: functional. (Thermal pain tests record how soon the animal reacts.)
Test [2] is filed under the species Mus musculus. Put plainly: Effective dose required to inhibit spontaneous locomotor activity in mice. It is filed as functional.

On to `CCCCC/C=C\C/C=C\C/C=C\C/C=C\CCCC(=O)NCCCCCO`, for which the ED50 (in general, the midpoint of the dose-response relation) in the test listed under Mus musculus [1] is 72.9 µmol/kg; in the test listed under Mus musculus [2], 49.5 µmol/kg.

`CCCCC/C=C\C/C=C\C/C=C\C/C=C\CCCC(=O)NCCOC`: it took a dose of 186 µmol/kg to reach the 50% effect level in the test filed under Mus musculus [2] (ED50).

Take `CCCCC/C=C\C/C=C\C/C=C\C/C=C\CCCC(=O)NCCO` [ANANDAMIDE]: the ED50 is 17.4 µmol/kg in the test listed under Mus musculus [1] and 50.3 µmol/kg in the test listed under Mus musculus [2].

`CCCCC/C=C\C/C=C\C/C=C\C/C=C\CCCC(=O)NCCF`: the ED50 in the test listed under Mus musculus [1] amounted to 190 µmol/kg; in the test filed under Mus musculus [2], 57.2 µmol/kg.

As for `CCCCC/C=C\C/C=C\C/C=C\C/C=C\CCC(C)(C)C(=O)NCCO`, the figures for the ED50 in the test listed under Mus musculus [1] and in the test listed under Mus musculus [2] were 49.6 µmol/kg and 30.5 µmol/kg, respectively.

On to `CCCCC/C=C\C/C=C\C/C=C\C/C=C\CCCC(=O)NCCOc1ccccc1`, for which the figures for the ED50 in the test filed under Mus musculus [1] and in the test listed under Mus musculus [2] were 74.1 µmol/kg and 23 µmol/kg, respectively.

With `CCCCC/C=C\C/C=C\C/C=C\C/C=C\CCCC(=O)NCCCO`, the ED50 amounted to 61.4 µmol/kg in the test listed under Mus musculus [1] and 43.7 µmol/kg in the test filed under Mus musculus [2].

Turning to `CCCCC/C=C\C/C=C\C/C=C\C/C=C\CCCC(=O)N1CCOCC1`, the ED50 was 25.4 µmol/kg in the test listed under Mus musculus [1] and 20.7 µmol/kg in the test listed under Mus musculus [2].
